For orientation: IC50 means the point on the concentration scale where inhibition reaches its midpoint. Read a high IC50 as weaker potency in that assay.

Bounds are passed on as bounds.

Here are results for 8 molecules from patent US9770500B2 (priority 2011, dated 2017).

Series [1] addresses T1, TcdB (Clostridioides difficile, UniProt P18177). The series is classed as biochemical, Clostridium difficile.
The next series concerns Caco-2 cells. The settings on record: MTT, TcdB 3.7 nM for 10 min.
The target of series [2] is T1, TcdB.
Series [3] deals with C. difficile TcdA holotoxin (Clostridioides difficile, UniProt P16154). The series is classed as binding, Clostridium difficile.
A further series relates to C. difficile VPI 10463. The series is classed as in vivo, C57BL/6 mice. An excerpt:
Murine C. Difficile Infection Model. A conventional mouse model of antibiotic-induced C. difficile infection that closely resembles the spectrum of disease manifest in humans was used as described (Chen et al., Gastroenterology 135:1984-92 (2008)). Disease severity varies from fulminant with typical histopathologic features of C. difficile infection, to minimal diarrhea depending on challenge dose. 12 week-old C57BL/6 mice were pre-treated for three days with a mixture of antibiotics shown to disrupt the intestinal microflora (Chen et al., Gastroenterology 135:1984-92 (2008)). After two days, mice were injected with clindamycin and were challenged intragastrically with 10^6 C. difficile VPI 10463 vegetative cells the following day. […] Oral administration of vancomycin (50 mg/kg/day) was used as a positive control.

Series [4] addresses T2, TcdA (Clostridioides difficile, UniProt P16154). The series is classed as in vivo, Cd-1 mice. The procedure: TcdA-Exposure of Mouse Ileal Loops. Cd-1 mice (10 week old males; Charles River Labs) were fasted overnight. Ileal loops were ligated in anesthetized animals via laparotomy and injected with 0.15 ml of purified TcdA, TcdA-SNO or TcdA-NEM (10 μg) or buffer as described (Savidge et al., Gastroenterology 125:413-20 (2003); Oiu et al., Gastroenterology 111: 409-18 (1996)). […] Four hrs after TcdA administration, mice were euthanized and fluid secretion was determined as the loop weight ([…])-to-length (cm) ratio. Full thickness loops were frozen in liquid nitrogen or fixed in 10% formalin in PBS (pH 7.2) for 24 hours and embedded in paraffin using routine procedures. Histological severity of enteritis was evaluated by assessing (1) epithelial cell necrosis, (2) hemorrhagic congestion and edema of the mucosa, and (3) neutrophil margination and tissue infiltration (Savidge et al., Gastroenterology 125:413-20 (2003); Oiu et al., Gastroenterology 111: 409-18 (1996)).
Myeloperoxidase Assay. Neutrophil myeloperoxidase (MPO) activity is an indicator of tissue inflammation. Intestinal segments (100-250 mg) were homogenized in 1 ml HTAB buffer and centrifuged at 20,000×g for 10 min at 4° C. Pellets were resuspended in 1 ml HTAB buffer containing 1% hexadecyltrimethlammonium to negate pseudoperoxidase activity. MPO activity was measured in supernatants following 3 cycles of sonication, freezing and thawing. After centrifugation at 40,000×g for 15 min at 4° C., supernatants (10 μl) were mixed with 90 μl of potassium phosphate buffer containing 0.167 mg/ml O-dianiside dihydrochloride and 0.0005% hydrogen peroxide. Activity was measured every 2 minutes for 20 minutes at 450 nm.
Quantitative Cytokine mRNA Measurements. Total RNA was extracted from cells or frozen tissues, treated with 1 U DNAse I and reversed transcribed (Gene Amp RNA-PCR Kit). Real-time rtPCR reactions were run with SYBR Green PCR Master-Mix for 40 cycles on a Chromo4 detector (Bio-Rad Ltd) (94° C. for 2 min; 94° C. for 1 min; 60° C. for 1 min; 72QC for lmin; repeat step 2-to-4 for 40 cycles; 72° C. for 10 min). Primer sets were for human IL-8: (Forward 5′-[…]-3′ SEQ ID NO:2; Reverse 5′-[…]-3′ SEQ ID NO:3); murine TNFα (Forward 5′-[…]-3′ SEQ ID NO:4, Reverse 5′-[…] […]-3′ SEQ ID NO:5); murine […] (Forward 5′-TTGAC[…]-3′ SEQ ID NO:6, Reverse 5′-[…]-3′ SEQ ID NO:7). Samples were normalized against commercial GAPDH or 18S rRNA primers and probes (Applied Biosystems) and relative expression levels were calculated as previously described (Savidge et al., Gastroenterology 132:1344-58 (2007)).

For series [5] the following is noted: in vivo; cited from earlier work.
The target in series [6] is toxin glucosyltransferase activity (Clostridioides difficile, UniProt P16154). The class given is biochemical, Clostridium difficile. The protocol: Cell Free Rac1 Glucosvlation Assay. Glucosyltransferase activity of TcdA and TcdA-SNO was measured by their ability to glucosylate Rho GTPase Rac1 in a cell-free assay. Caco-2 cell pellets were resuspended in glucosylation buffer (50 mM HEPES, pH 7.5, 100 mM KCl, 1 mM MnCl2 and 2 mM MgCl2) and lysed with a syringe (25G, 40 passes through the needle). After centrifugation (167,000×g, 3 min), the supernatant was used as a post-nuclear cell lysate. To perform the glucosylation assay, the cell lysates were incubated with TcdA or TcdA-SNO (final concentration of the toxins was 5 μg/ml) at 37° C. for 30 min. The reaction was terminated by heating at 100° C. for 5 min in SDS-sample buffer. To measure Rac1 glucosylation levels, lysates were separated on a 4-20% gradient SDS-PAGE gel and transferred onto a nitrocellulose membrane. An antibody that specifically recognizes the non-glucosylated form of Rac1 (clone 102, BD Bioscience) was used for detection.

Series [7] has as its target T2, TcdA. Description: cell-based.
A further series addresses deoxygenated hemoglobin (Homo sapiens, UniProt P68871). The class given is binding.

T1 sequence (P18177 2-2366 limits assumed): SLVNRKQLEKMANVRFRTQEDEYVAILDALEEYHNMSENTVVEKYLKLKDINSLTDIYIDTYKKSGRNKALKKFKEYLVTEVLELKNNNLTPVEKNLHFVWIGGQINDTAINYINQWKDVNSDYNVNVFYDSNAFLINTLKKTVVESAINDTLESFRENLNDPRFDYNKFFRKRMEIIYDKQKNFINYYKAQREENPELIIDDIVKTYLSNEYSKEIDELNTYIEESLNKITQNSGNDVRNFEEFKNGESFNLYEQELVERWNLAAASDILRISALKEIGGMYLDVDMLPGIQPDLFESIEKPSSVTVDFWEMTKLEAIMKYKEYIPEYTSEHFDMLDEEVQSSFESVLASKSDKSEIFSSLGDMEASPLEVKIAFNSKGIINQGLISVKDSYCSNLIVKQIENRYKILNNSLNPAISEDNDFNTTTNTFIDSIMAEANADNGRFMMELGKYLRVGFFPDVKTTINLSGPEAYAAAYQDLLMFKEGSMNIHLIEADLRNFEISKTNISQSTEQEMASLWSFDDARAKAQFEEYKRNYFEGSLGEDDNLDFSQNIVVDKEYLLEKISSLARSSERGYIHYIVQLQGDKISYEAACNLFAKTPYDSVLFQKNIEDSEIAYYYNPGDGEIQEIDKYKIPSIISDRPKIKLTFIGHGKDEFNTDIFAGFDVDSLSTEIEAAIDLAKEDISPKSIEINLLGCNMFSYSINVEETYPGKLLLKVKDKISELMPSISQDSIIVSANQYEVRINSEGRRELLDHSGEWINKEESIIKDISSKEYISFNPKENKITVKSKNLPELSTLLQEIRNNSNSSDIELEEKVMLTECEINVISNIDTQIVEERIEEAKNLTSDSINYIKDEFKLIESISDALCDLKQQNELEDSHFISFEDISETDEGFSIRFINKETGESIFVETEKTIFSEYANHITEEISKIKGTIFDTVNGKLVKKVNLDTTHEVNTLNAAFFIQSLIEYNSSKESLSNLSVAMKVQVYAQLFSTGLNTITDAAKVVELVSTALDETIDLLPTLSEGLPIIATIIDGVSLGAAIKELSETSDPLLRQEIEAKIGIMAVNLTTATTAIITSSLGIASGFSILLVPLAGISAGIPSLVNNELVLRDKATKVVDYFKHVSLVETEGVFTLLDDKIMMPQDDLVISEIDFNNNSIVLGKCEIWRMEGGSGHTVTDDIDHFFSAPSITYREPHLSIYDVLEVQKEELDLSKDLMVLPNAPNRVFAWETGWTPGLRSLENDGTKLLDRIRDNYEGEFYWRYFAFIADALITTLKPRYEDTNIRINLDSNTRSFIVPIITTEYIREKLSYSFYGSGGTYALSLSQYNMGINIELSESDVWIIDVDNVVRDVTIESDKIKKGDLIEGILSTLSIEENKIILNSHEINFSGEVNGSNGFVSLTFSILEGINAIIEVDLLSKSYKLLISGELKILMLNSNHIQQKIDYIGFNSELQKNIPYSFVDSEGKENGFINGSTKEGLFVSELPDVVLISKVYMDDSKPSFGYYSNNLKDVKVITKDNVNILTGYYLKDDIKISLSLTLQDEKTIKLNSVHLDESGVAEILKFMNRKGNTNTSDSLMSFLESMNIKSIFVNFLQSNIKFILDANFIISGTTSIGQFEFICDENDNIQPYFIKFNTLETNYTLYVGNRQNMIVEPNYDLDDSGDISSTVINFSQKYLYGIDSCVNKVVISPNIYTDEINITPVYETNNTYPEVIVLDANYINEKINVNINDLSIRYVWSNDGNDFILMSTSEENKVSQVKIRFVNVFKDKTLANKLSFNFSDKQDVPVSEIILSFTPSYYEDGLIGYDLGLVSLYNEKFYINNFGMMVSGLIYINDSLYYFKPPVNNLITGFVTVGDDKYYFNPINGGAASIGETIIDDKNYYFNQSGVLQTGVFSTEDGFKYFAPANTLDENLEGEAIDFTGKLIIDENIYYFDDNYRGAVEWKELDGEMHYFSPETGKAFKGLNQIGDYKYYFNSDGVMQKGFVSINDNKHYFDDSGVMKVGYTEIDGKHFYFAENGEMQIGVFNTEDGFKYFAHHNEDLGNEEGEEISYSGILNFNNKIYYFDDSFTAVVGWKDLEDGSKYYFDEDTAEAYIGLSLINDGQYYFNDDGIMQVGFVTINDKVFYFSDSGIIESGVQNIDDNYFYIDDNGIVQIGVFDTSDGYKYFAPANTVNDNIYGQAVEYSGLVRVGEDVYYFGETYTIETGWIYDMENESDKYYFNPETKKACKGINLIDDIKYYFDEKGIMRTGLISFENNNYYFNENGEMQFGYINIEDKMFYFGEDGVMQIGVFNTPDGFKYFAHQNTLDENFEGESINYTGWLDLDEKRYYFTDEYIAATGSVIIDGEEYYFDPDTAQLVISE
T2 sequence (P16154 whole entry, looked up): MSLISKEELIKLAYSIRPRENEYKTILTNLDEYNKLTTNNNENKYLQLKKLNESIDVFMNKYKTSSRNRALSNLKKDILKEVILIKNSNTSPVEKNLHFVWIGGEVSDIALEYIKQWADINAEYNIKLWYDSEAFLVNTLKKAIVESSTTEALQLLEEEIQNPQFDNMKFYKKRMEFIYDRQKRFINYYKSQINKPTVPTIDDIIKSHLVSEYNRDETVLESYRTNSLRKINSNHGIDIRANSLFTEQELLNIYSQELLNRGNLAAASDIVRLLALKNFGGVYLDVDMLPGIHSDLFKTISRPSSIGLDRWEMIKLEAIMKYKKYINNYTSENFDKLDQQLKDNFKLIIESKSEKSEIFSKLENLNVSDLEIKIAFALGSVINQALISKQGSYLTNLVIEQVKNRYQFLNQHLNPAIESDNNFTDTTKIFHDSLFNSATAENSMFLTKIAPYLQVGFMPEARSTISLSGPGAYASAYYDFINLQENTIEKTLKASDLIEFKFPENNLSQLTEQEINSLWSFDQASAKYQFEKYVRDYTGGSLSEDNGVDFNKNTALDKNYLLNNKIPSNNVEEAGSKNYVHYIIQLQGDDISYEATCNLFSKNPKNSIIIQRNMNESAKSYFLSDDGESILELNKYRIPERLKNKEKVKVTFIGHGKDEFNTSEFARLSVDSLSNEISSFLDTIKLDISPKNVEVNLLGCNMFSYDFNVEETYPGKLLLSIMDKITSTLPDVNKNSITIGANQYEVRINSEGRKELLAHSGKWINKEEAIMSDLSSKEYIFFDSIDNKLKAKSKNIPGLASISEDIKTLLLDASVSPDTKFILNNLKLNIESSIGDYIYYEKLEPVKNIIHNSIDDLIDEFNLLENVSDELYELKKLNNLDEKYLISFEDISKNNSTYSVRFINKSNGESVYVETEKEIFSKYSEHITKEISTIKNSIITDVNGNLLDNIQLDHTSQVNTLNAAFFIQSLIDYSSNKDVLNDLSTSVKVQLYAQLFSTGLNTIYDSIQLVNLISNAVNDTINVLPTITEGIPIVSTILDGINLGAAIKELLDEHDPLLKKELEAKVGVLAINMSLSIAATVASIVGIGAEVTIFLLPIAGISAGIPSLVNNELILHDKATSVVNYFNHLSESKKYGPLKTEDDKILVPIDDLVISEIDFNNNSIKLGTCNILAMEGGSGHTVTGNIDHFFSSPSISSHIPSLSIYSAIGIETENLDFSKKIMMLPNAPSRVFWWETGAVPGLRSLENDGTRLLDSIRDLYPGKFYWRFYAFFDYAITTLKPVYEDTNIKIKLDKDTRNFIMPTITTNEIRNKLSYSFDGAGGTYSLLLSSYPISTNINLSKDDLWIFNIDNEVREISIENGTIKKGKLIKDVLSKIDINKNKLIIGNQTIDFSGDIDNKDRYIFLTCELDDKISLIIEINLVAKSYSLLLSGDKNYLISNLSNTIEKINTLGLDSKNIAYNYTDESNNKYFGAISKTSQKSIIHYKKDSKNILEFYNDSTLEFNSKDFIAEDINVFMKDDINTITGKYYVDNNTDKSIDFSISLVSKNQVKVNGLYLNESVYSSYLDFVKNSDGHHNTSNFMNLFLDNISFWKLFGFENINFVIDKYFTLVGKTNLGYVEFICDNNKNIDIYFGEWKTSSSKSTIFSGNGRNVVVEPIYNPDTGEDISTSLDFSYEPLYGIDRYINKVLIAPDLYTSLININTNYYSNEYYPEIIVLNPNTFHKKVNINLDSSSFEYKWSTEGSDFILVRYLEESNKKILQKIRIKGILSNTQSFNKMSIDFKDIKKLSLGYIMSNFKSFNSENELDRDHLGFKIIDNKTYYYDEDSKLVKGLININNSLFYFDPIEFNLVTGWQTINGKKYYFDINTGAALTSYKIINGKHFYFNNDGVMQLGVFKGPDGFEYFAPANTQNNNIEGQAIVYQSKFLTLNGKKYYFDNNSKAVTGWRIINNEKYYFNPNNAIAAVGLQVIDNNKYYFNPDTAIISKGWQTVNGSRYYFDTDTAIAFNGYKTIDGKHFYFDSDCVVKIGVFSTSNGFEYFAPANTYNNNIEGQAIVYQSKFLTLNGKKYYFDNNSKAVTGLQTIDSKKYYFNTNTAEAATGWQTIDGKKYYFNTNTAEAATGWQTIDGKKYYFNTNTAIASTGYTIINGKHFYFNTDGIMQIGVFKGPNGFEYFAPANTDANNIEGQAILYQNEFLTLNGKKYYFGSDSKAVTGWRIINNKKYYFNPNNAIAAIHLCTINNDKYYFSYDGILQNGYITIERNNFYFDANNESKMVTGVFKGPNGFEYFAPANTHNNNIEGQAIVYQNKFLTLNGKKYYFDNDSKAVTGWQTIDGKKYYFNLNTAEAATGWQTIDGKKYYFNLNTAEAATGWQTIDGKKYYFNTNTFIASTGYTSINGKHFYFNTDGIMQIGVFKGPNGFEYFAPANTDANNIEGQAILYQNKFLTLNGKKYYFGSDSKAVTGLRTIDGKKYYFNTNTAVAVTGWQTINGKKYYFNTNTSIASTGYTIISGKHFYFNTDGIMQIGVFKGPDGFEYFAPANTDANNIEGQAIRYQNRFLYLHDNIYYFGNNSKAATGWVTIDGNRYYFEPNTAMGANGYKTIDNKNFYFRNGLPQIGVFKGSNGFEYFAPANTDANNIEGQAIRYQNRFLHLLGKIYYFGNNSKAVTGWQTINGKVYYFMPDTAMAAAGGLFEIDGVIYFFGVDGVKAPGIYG

Regarding `O[C@H](CS)[C@H](O)CS` (racemic) [DTT, dithiothreitol], the “toxin autocleavage with agent alone” value on TcdB [1] was “No significant toxin autocleavage”.

For the molecule `N[C@@H](CCC(=O)N[C@@H](CS)C(=O)NCC(=O)O)C(=O)O` [GSH, glutathione], on TcdB [1], the “effect on InsP6 induced TcdB autocleavage” value was “potentiated” and the “toxin autocleavage with agent alone” value is “No significant toxin autocleavage”.

For `CCOC(=O)CNC(=O)[C@H](CS)NC(=O)CC[C@H](N)C(=O)O` [GSH-EE, GSH-ethyl ester], the “effect on cytoprotection of eNOS expressing Caco-2 cells against TcdB” value in the series with Caco-2 cells is “reversed”.

`N[C@@H](CCC(=O)N[C@@H](CSN=O)C(=O)NCC(=O)O)C(=O)O` [GSNO, S-nitrosoglutathione]: the “IC50 of GSNO with inositolphosphate cofactor” value at TcdB [2] was “low micromolar range”. Further, the “effect on InsP6 binding to the cysteine protease domain” value in [3] is listed as “significantly inhibited”. Also, the “survival (Kaplan-Meier)” value with C. difficile VPI 10463 (oral gavage GSNO 10 mg/kg/day) is listed as “survival benefit”. Moreover, the “TcdA induced fluid secretion in murine ileal loops” value at TcdA [4] (GSNO 10 mg/kg in 0.1 ml, TcdA 10 μg, 4 hrs) is reported as “inhibits”. For the same molecule, on TcdA [4] (TcdA 10 μg, 4 hrs), the “TcdA induced TNF-α and IL-1γ gene transcripts” value is “significantly attenuated”. Further, the “toxin-induced disease activity (histological damage, inflammation, intestinal secretion)” value at TcdA [4] (co-injected with TcdA into ileal loops for 4 hrs) is listed as “markedly reduced”. For the same molecule, the “effect on InsP6 induced TcdB autocleavage” value at TcdB [1] is “inhibited”. Further, in series [5], the tolerability entry is listed as “well tolerated”. Moreover, the “glucosyltransferase activity in cell lysates” value in series [6] is listed as “did not inhibit toxin binding to Caco-2 cells or alter glucosyltransferase activity”. This molecule also had an IC50 on TcdA [7] of 57.9 µM. For the same molecule, in the series on C. difficile toxin, the “toxin binding to Caco-2 cells” value is reported as “did not inhibit”.

With `O=P(O)(O)OC1C(OP(=O)(O)O)C(OP(=O)(O)O)C(OP(=O)(O)O)C(OP(=O)(O)O)C1OP(=O)(O)O` (stereo not shown) [InsP6, inositol hexakisphosphate], the “effect of added InsP6 on survival benefit of GSNO” value in the series with C. difficile VPI 10463 (oral InsP6 0.25 mg/kg/day with GSNO 10 mg/kg/day) was “potentiated”. Besides, the “effect of added InsP6 on GSNO inhibition of TNF-α and IL-1γ transcripts” value at TcdA [4] (InsP6 1 mM with GSNO) is “potentiated”. Further, the “effect of added InsP6 on GSNO protection against fluid secretion” value on TcdA [4] (InsP6 1 mM with GSNO 10 mg/kg) is “enhanced”. The same molecule had a binding affinity on deoxygenated hemoglobin of more than 1.6 nM/mg protein.

`COC(=O)[C@@H](N)CCCNC(=N)N[N+](=O)[O-]` [L-NAME, N^G-nitro-L-arginine methyl ester]: in the series on Caco-2 cells, the “effect on cytoprotection of eNOS expressing Caco-2 cells against TcdB” value is “reversed”.

Consider “(rac1)-1(3)-PP-(2,3,4,5,6)InsP5 [r-InsP7]”, for which, at TcdB [1], the TcdB autocleavage activity result was “not significantly different”.

Consider D-myo-5-PP-(1,2,3,4,6)InsP5 [m-InsP7], for which the TcdB autocleavage activity result on TcdB [1] is “not significantly different”.
